Consider 26 molecules from US9656981B2, “Peripherally-acting cannabinoid receptor agonists for chronic pain” (The Regents of the University of California, priority 2012, dated 2017).

For data set [1], the system named is sciatic nerve entrapment (SNE) neuropathy. As to the kind of experiment: SNE neuropathy, mechanical allodynia (von Frey). In kind it is in vivo, rat. The conditions noted are these: for effect of pretreatment with the CBR blocker on the anti-allodynic effect of PrNMI: blocker before PrNMI 0.6 mg/kg, SNE rats. The method, then:
The effectiveness of CBR agonists was tested for alleviating the painful symptoms of neuropathy induced by unilateral sciatic nerve entrapment (SNE)^131. The peripheral neuropathy induced by SNE is highly comparative to that of chronic constriction injury (CCI), which uses chromic gut suture materials instead of polyethylene cuffs^132. […] This increased excitability is at least in part attributable to injury-induced post-transcriptional transport of the voltage-gated sodium channel 1.8 (NaV1.8) mRNA, axonal accumulation of NaV1.8 mRNA, and its local protein translation leading to the increased NaV1.8 functional expression in injured nerve^136. The hyperexcitability and ectopic burst discharge of primary sensory neurons are widely considered to be the major contributors to pain symptomatology of peripheral neuropathy models. The SNE-induced mechanical allodynia effectively models the most common complaint of human neuropathy patients of dynamic mechanical allodynia. Behavioral measurements of mechanical sensitivity were conducted before and after induction of SNE as follows:
Rats are placed in a plastic-walled cage (10×20×13 cm) with a metal mesh floor (0.6×0.6 cm holes) and allowed to acclimate for 10 min. The amount of pressure (g) needed to evoke a hindpaw withdrawal response is measured 4 times on each paw separated by 30-s intervals using a von Frey-type digital meter (Model 1601C, IITC Instr.). Results of 4 tests/session are averaged for each paw.

The target in a further data set is CB2R (Homo sapiens, UniProt P34972). As to the kind of experiment: CB2R radioligand displacement binding assay (CP55940 radioligand). The procedure:
Detailed radioligand displacement assays (using the well-characterized CBR agonist […] as the radioligand) were conducted to determine the affinity (Ki) of the test compounds for CB1R and CB2R as has been previously described by our group^112,113. Heterologous competition binding assays were performed to calculate receptor affinities. Unlabeled SR141716 or SR144528 were used as appropriate controls for non-specific binding (NSB) in the assay. Calculation of the equilibrium dissociation constant (Ki) was performed using the Cheng-Prusoff equation.

A further data set addresses CB1R (Homo sapiens, UniProt P21554). As to the kind of experiment: CB1R radioligand displacement binding assay (CP55940 radioligand). The procedure: Heterologous competition binding assays were performed to calculate receptor affinities. Unlabeled SR141716 or SR144528 were used as appropriate controls for non-specific binding (NSB) in the assay. Calculation of the equilibrium dissociation constant (Ki) was performed using the Cheng-Prusoff equation.

Data set [2] can be described thus: S9 fraction stability assay. In kind it is in vitro ADME. Conditions: 60 min; rat liver S9, 10 μM. The method, then: Compounds are incubated at 10 μM in rat (male Sprague Dawley) liver S9 at 37° C. Each compound is prepared in ethanol at a concentration of 1 mM. An assay mixture containing S9 (1 mg protein/mL final concentration) and an NADPH regenerating system (NADP [1 mM final], glucose 6-phosphate [5 mM final] and glucose 6-phosphate dehydrogenase [1 U/mL final]) in a buffer consisting of 50 mM KPO4 phosphate buffer, pH 7.4 with 3 mM MgCl2 is prepared and preincubated at 37° C. for 5 min. A 10 μL volume of the 1 mM solution is added to 990 μL of assay mixture in a glass test tube @ 37° C. to initiate the assay. Samples (50 μL) are removed at 0, 15, 30, 60 and 120 min and immediately extracted with 3 volumes (150 μL) of methanol, centrifuged to pellet protein and supernatants transferred to LC/MS vials for analysis.

A short description of the next data set: Plasma stability assay. Conditions: 60 min; rat plasma, 10 μM. In kind it is in vitro ADME. The procedure:
Compounds are incubated at 10 μM in rat plasma at 37° C. A solution of each compound is prepared in ethanol at a concentration of 1 mM. A 2.5 μL volume of the 1 mM solution is added to 247.5 μL of rat plasma (male Sprague Dawley) in a glass test tube in a 37° C. water bath. Samples (50 μL) are removed at 0, 30 and 60 min and immediately extracted with 3 volumes (150 μL) of methanol. Samples are centrifuged (2500 rpm for 10 min at 4° C.) to pellet protein and supernatants transferred to LC/MS vials for analysis. Samples are stored at −80° C. prior to analysis.

Where [3] appears, read: Table 1, CP55940 radioligand, read-out: CB1_KI_CP.

Where two headings read alike, the source gives them in different places.

Sequence of CB2R (P34972 whole entry): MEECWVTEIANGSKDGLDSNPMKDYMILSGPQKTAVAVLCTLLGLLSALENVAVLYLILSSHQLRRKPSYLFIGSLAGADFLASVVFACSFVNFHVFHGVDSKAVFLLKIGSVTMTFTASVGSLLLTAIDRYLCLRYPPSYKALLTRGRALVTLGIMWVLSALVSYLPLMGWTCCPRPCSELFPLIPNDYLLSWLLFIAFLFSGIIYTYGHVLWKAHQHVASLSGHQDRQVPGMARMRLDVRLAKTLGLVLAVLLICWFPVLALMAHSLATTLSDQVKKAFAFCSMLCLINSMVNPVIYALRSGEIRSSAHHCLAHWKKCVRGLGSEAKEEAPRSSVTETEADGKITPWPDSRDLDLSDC
Sequence of CB1R (P21554 whole entry): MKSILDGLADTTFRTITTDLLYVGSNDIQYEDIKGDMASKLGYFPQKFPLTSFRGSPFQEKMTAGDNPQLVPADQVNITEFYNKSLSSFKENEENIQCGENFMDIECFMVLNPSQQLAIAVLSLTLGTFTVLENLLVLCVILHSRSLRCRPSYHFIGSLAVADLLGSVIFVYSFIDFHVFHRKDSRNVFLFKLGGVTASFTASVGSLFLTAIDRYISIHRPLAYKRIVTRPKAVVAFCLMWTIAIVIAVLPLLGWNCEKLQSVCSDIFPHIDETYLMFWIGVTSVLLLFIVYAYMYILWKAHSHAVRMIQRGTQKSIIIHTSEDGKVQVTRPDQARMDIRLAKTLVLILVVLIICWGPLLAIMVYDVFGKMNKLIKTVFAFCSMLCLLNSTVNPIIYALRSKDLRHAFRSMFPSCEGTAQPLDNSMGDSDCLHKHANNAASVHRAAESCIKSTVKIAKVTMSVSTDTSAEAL

In the case of “4-{2-[(1E)-2-[(4- methoxy- naphthalen-1- yl)methylidene]- 1H-inden-3- yl]ethyl} morpholine [Compound 10]”, in data set [1] (0.3 mg/kg, hindpaw contralateral to SNE), the “effect on contralateral hindpaw withdrawal thresholds” value is given as “Neither ENMI nor 13339-135-25 had any significant effect”.
Regarding `C1=C(CCN2CCOCC2)c2ccccc2/C1=C/c1ccnc2ccccc12` [Compound 14, 4-{[(1E)-3-[2-(morpholin-4-yl)ethyl]-1H-inden-1-ylidene]methyl} quinoline], the Ki on CB2R was determined as 12.1 nM; at CB1R, 23 nM; at CB1R (setting [3]), 23.3 nM.
`C1=C(CCN2CCOCC2)c2ccccc2/C1=C/c1ccccc1-c1ccccc1` [Compound 16, 4-{2-[(1E)-1-[(2-phenylphenyl)methylidene]-1H-inden-3-yl]ethyl} morpholine]: the Ki is 15.3 nM on CB2R and 82.9 nM at CB1R (setting [3]).
The like results for `C1=C(CCN2CCOCC2)c2ccccc2/C1=C/c1cccc2cc[nH]c12` [Compound 17, 7-{[(1E)-3-[2-(morpholin-4-yl)ethyl]-1H-inden-1-ylidene]methyl}-1H-indole] were, in that order, 8.7 nM and 107 nM.
As to `COc1ccccc1/C=C1\C=C(CCN2CCOCC2)c2ccccc21` [Compound 18, 4-{2-[(1E)-1-[(2-methoxyphenyl)meth-ylidene]-1H-inden-3-yl]ethyl} morpholine], the figures for the Ki on CB2R and on CB1R (setting [3]) were 29.8 nM and 149 nM, respectively.
As for `CCCCCC1=C/C(=C\c2cccc3ccccc23)c2ccccc21` [Compound 19, 1-{[(1E)-3-pentyl-1H-inden-1-ylidene]methyl} naphthalene, reference compound], the Ki worked out at 163 nM at CB2R and 17.2 nM at CB1R (setting [3]).
The matching figures for `C1=C(CCN2CCOCC2)c2ccccc2/C1=C/c1ccc2ccccc2c1` [Compound 20, 4-{2-[(1E)-1-(naphthalen-2-ylmethylidene)-1H-inden-3-yl]ethyl} morpholine]: 24.4 nM and 134 nM.
The matching figures for `C1=C(CCN2CCOCC2)c2ccccc2/C1=C/c1cccc2cnccc12` [Compound 22, 5-{[(1E)-3-[2-(morpholin-4-yl)ethyl]-1H-inden-1-ylidene]methyl} isoquinoline]: 51.4 nM and 454 nM.
Regarding `Ic1ccccc1/C=C1\C=C(CCN2CCOCC2)c2ccccc21` [Compound 23, 4-{2-[(1E)-1-[(2-iodophenyl)methyl-idene]-1H-inden-3-yl]ethyl} morpholine], the values for the Ki at CB2R and at CB1R (setting [3]) were 109 nM and 607 nM, respectively.
Turning to `Cc1ccccc1/C=C1\C=C(CCN2CCOCC2)c2ccccc21` [Compound 24, 4-{2-[(1E)-1-[(2-methylphenyl)methylidene]-1H-inden-3-yl]ethyl} morpholine], the Ki turned out to be 95.4 nM on CB2R and 623 nM on CB1R (setting [3]).
The like results for `Brc1ccccc1/C=C1\C=C(CCN2CCOCC2)c2ccccc21` [Compound 25, 4-{2-[(1E)-1-[(2-bromophenyl)methylidene]-1H-inden-3-yl]ethyl} morpholine] were, in that order, 206 nM and 647 nM.
For the molecule `Fc1ccccc1/C=C1\C=C(CCN2CCOCC2)c2ccccc21` [Compound 28, 4-{2-[(1E)-1-[(2-fluorophenyl)methylidene]-1H-inden-3-yl]ethyl} morpholine], the Ki on CB2R is 429 nM; at CB1R (setting [3]), 1000 nM.
The like results for `C1=C(CCN2CCOCC2)c2ccccc2/C1=C/c1ccccc1` [Compound 29, 4-{2-[(1E)-1-(phenyl-methylidene)-1H-inden-3-yl]ethyl} morpholine] were, in that order, 295 nM and 1300 nM.
The like results for `C1=C(CCN2CCOCC2)c2ccccc2/C1=C/c1cccs1` [Compound 30, 4-{2-[(1E)-1-(thiophen-2-ylmethylidene)-1H-indene-3-yl]ethyl} morpholine] were, in that order, 3020 nM and 8530 nM.
The matching figures for `C1=C(CCN2CCOCC2)c2ccccc2/C1=C/c1cccc(-c2ccccc2)c1` [Compound 37, 4-{2-[(1E)-1-[(3-phenylphenyl)methylidene]-1H-inden-3-yl]ethyl} morpholine]: 132 nM and 2600 nM.
On to `CCCCCCC1=C/C(=C\Cc2ccccc2)c2ccccc21` [Compound 38, (1E)-3-hexyl-1-(2-phenyl-ethylidene)-1H-indene], for which the figures for the Ki on CB2R and at CB1R were 13700 nM and 4410 nM, respectively.
On to `COC(=O)c1ccc(C(=O)c2cn(CCN3CCOCC3)c3ccccc23)c2ccccc12` [Compound 56, methyl 4-{1-[2-(morpholin-4-yl)ethyl]-1H-indole-3-carbonyl} naphthalene-1-carboxylate], for which the “S9% remaining @ xy min” value in data set [2] is given as 0 @ 60%. Besides, the “Plasma % remaining @ xy min” value in the data set “Plasma stability assay” is listed as 0 @ 60%. Besides, the Ki at CB2R came out at 61.4 nM; at CB1R (setting [3]), 52.4 nM.
For `CCCCCn1cc(C(=O)c2ccc(C(=O)OCC)c3ccccc23)c2ccccc21` [Compound 58, ethyl 4-(1-pentyl-1H-indole-3-carbonyl)naphth-alene-1-carboxylate], the results for the Ki on CB2R and at CB1R (setting [3]) were 53.9 nM and 115 nM, respectively.
The like results for `CCCCCn1cc(C(=O)c2ccc(C(N)=O)c3ccccc23)c2ccccc21` [Compound 59, 4-(1-pentyl-1H-indole-3-carbonyl)naph-thalene-1-carboxamide] were, in that order, 135 nM and 96.6 nM.
Turning to `CCCCCn1cc(C(=O)c2ccc(C(=O)NC)c3ccccc23)c2ccccc21` [Compound 60, N-methyl-4-(1-pentyl-1H-indole-3-carbonyl) naphthalene-1-carboxamide], the Ki amounted to 303 nM at CB2R and 127 nM at CB1R (setting [3]).
Regarding `CCCCCn1cc(C(=O)c2ccc(C(=O)CC)c3ccccc23)c2ccccc21` [Compound 61, 1-[4-(1-pentyl-1H-indole-3-carbonyl)naphthalen-1-yl]propan-1-one], the “S9% remaining @ xy min” value in data set [2] is given as 3 @ 60%. The “Plasma % remaining @ xy min” value in “Plasma stability assay” is listed as 75 @ 60%. Besides, the Ki on CB2R is 32.7 nM; on CB1R (setting [3]), 5.71 nM.
`CCCCCn1cc(C(=O)c2cccc3ccccc23)c2ccc(F)cc21` [Compound 64, 6-fluoro-3-(naphthalene-1-carbonyl)-1-pentyl-1H-indole]: in data set [1] (0.3 mg/kg, systemic injection), the “effect on SNE-induced mechanical allodynia (ipsilateral hindpaw withdrawal thresholds)” value is listed as “anti-allodynic effects”. The “SNE Neuropath Assay-% return to pre-drug (0.3 mg/kg) contralateal threshold at 2-3 h” value in data set [1] (0.3 mg/kg, 2-3 h) stood at 54.4%. Further, the Ki at CB2R (Table 1, CP55940 radioligand, read-out: CB2_KI_CP) was 16.4 nM; on CB1R (setting [3]) it was 2.35 nM.
For `O=C(c1cccc2ccccc12)c1cn(CCCCCF)c2cccc(F)c12` [Compound 66, 4-fluoro-1-(5-fluoropentyl)-3-(naphthalene-1-carbonyl)-1H-indole], the Ki was 2.94 nM at CB2R and 4.38 nM on CB1R (setting [3]).
The like results for `O=C(c1cccc2ccccc12)c1cn(CCN2CCOCC2)c2cccc(F)c12` [Compound 68, 4-fluoro-1-[2-(morpholin-4-yl)ethyl]-3-(naphthalene-1-carbonyl)-1H-indole] were, in that order, 95.2 nM and 237 nM.
In the case of `Cc1c(C(=O)NN2CCCCC2)nn(-c2ccc(Cl)cc2Cl)c1-c1ccc(Cl)cc1` [SR141617A, rimonabant, reference compound], in data set [1], the “effect of pretreatment with the CBR blocker on the anti-allodynic effect of PrNMI” value was “completely blocked”.
The same measure, in the same setting: as for SR144528 [reference compound], the entry is “little effect”.
